Values quoted from earlier work as cited in patent US20020068688A1, “Cleaning compositions” (Unilever Home & Personal Care USA, Division of Conopco, Inc., priority 2000, published 2002).

Settings: grams of solid to form a saturated solution in 100 grams of water at 20° C.

- Water Solubility: >100 g/100 g
SMILES: NC(N)=O [Urea]
